Measurements: US12384770B2, “Heterocyclic compound” (Takeda Pharmaceutical Company Limited, priority 2019, dated 2025)

molecular target: T1, HDAC6 enzyme (Homo sapiens, UniProt Q9UBN7); test: HDAC6 enzyme inhibitory assay (HDAC-Glo I/II Assay kit); assay type: biochemical; conditions: wells without enzyme = 100% inhibition
T1 construct: HDAC6 enzyme prepared by transducing full length HDAC6 gene into Sf-9 insect cells; GST; purchased SignalChem; host or cells: Sf-9 insect cells
T1 sequence (Q9UBN7 1-1215): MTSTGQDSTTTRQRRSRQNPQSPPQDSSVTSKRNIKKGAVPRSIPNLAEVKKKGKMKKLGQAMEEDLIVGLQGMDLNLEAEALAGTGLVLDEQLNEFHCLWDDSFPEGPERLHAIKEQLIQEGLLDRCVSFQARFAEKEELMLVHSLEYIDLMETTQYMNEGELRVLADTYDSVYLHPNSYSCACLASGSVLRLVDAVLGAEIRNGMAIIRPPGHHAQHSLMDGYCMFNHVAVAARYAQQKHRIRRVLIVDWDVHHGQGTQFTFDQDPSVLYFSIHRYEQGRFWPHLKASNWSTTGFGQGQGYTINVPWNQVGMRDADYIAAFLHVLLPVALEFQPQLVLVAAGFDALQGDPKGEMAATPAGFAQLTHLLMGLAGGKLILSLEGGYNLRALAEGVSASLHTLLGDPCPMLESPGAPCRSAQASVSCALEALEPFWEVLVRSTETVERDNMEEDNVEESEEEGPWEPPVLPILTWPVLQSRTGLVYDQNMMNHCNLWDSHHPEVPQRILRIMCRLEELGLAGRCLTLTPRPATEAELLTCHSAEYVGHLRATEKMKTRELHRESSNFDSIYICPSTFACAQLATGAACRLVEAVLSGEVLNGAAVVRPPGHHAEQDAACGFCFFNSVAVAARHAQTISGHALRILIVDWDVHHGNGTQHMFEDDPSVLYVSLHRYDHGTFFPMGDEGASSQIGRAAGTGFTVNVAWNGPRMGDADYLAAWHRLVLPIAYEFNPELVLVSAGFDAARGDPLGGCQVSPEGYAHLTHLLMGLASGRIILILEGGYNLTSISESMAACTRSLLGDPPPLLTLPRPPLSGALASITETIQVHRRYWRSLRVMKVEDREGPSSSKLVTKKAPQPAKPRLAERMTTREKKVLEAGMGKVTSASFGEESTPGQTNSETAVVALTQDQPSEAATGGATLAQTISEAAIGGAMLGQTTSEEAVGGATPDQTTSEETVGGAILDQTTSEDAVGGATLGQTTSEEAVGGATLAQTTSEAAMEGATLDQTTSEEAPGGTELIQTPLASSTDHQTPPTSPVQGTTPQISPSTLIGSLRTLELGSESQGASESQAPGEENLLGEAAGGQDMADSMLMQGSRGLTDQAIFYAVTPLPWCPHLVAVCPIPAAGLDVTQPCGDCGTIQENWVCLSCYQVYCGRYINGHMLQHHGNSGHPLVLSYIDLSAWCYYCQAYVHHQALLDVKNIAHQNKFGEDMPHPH
Method in brief: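 Full-length GST-purified HDAC6 from Sf-9 cells preincubated with compound 60 min at room temperature in Tris-HCl pH 7.5 buffer with MgCl2, KCl, NaCl, glutathione, Tween-20. Substrate-developer reaction 20 min, luminescence read; no-enzyme wells set as 100% inhibition.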

| HDAC6 inhibitory rate (%) (10 μM) | SMILES |
| --- | --- |
| 100% | O=C1c2cc(-c3nnc(C(F)F)o3)ccc2CN1[C@H](c1ccccn1)[C@@H](O)c1cccc(F)c1 (single isomer, unassigned) [Example 62, 6-[5-(difluoromethyl)-1,3,4-oxadiazol-2-yl]-2-[(1R*,2S*)-2-(3-fluorophenyl)-2-hydroxy-1-(pyridin-2-yl)ethyl]-2,3-dihydro-1H-isoindol-1-one] |
| 100% | O=C1c2cc(-c3nnc(C(F)F)o3)ccc2CN1[C@H](c1ccccn1)[C@@H](O)c1ccccc1 (single isomer, unassigned) [Example 103, 6-[5-(difluoromethyl)-1,3,4-oxadiazol-2-yl]-2-[(1R*,2S*)-2-hydroxy-2-phenyl-1-(pyridin-2-yl)ethyl]-2,3-dihydro-1H-isoindol-1-one] |

same assay, conditions: wells without enzyme = 100% inhibition, 10 µM

| HDAC6 inhibitory rate (%) (10 μM) | SMILES |
| --- | --- |
| 100% | O=C1c2cc(-c3nnc(C(F)F)o3)ccc2CN1[C@H](c1ccccc1)[C@@H](O)c1ccccn1 (single isomer, unassigned) [Example 48, 6-[5-(difluoromethyl)-1,3,4-oxadiazol-2-yl]-2-[(1R*,2R*)-2-hydroxy-1-phenyl-2-(pyridin-2-yl)ethyl]-2,3-dihydro-1H-isoindol-1-one] |

same assay, conditions: wells without enzyme = 100% inhibition, read-out: HDAC6 inhibitory rate (%) (10 μM)

| inhibition at 10 µM | SMILES |
| --- | --- |
| 100% | N#Cc1ccc([C@H]([C@@H](O)c2ccccc2)N2Cc3ccc(-c4nnc(C(F)F)o4)cc3C2=O)cc1 (racemic) [Example 41, 4-[(1RS,2SR)-1-{6-[5-(difluoromethyl)-1,3,4-oxadiazol-2-yl]-1-oxo-1,3-dihydro-2H-isoindol-2-yl}-2-hydroxy-2-phenylethyl]benzonitrile] |
| 98% | O=C1c2cc(-c3nnc(C(F)F)o3)ccc2CN1[C@H](c1ccc(F)cc1)[C@H](O)C1CC1 (racemic) [Example 140, 2-[(1RS,2RS)-2-cyclopropyl-1-(4-fluorophenyl)-2-hydroxyethyl]-6-[5-(difluoromethyl)-1,3,4-oxadiazol-2-yl]-2,3-dihydro-1H-isoindol-1-one] |
| 100% | O=C1c2cc(-c3nnc(C(F)F)o3)ccc2CN1[C@H](c1ccccc1)[C@H](O)c1ccccc1 [Example 12, 6-[5-(difluoromethyl)-1,3,4-oxadiazol-2-yl]-2-[(1R,2R)-2-hydroxy-1,2-diphenylethyl]-2,3-dihydro-1H-isoindol-1-one] |
| 99% | O=C1c2cc(-c3nnc(C(F)F)o3)ccc2CN1[C@H](c1ccccc1)[C@@H](O)c1ccccn1 (single isomer, unassigned) [Example 47, 6-[5-(difluoromethyl)-1,3,4-oxadiazol-2-yl]-2-[(1R*,2R*)-2-hydroxy-1-phenyl-2-(pyridin-2-yl)ethyl]-2,3-dihydro-1H-isoindol-1-one] |
| 99% | O=C1c2cc(-c3nnc(C(F)F)o3)ccc2CN1[C@H](C1CC1)[C@@H](O)c1cccc(F)n1 (single isomer, unassigned) [Example 79, 2-[(1R*,2R*)-1-cyclopropyl-2-(6-fluoropyridin-2-yl)-2-hydroxyethyl]-6-[5-(difluoromethyl)-1,3,4-oxadiazol-2-yl]-2,3-dihydro-1H-isoindol-1-one] |
| 100% | O=C1c2cc(-c3nnc(C(F)F)o3)ccc2CN1[C@H](C1CC1)[C@@H](O)c1ccc(F)cc1 [Example 9, 2-[(1R,2S)-1-cyclopropyl-2-(4-fluorophenyl)-2-hydroxyethyl]-6-[5-(difluoromethyl)-1,3,4-oxadiazol-2-yl]-2,3-dihydro-1H-isoindol-1-one] |
| 100% | O=C1c2cc(-c3nnc(C(F)F)o3)ccc2CN1[C@H](C1CCOCC1)[C@@H](O)c1cccc(F)c1 [Example 64, 6-[5-(difluoromethyl)-1,3,4-oxadiazol-2-yl]-2-[(1R,2S)-2-(3-fluorophenyl)-2-hydroxy-1-(oxan-4-yl)ethyl]-2,3-dihydro-1H-isoindol-1-one] |
